Assay results taken from ChEMBL document CHEMBL5143690, “Identification of nitrofuranylchalcone tethered benzoxazole-2-amines as potent inhibitors of drug resistant Mycobacterium tuberculosis demonstrating bactericidal efficacy” (Bioorg Med Chem, 2022).
≈ marks a conversion by molar mass, not a printed value. Calls of active or inactive are those of the source. The rule behind the calls is not given here.

Tests used:
Pseudomonas aeruginosa = assay: Antibacterial activity against Pseudomonas aeruginosa ATCC 27853 assessed as reduction in bacterial growth incubated for 16 to 18 hrs by microtiter plate assay; type: functional; details: time 16-18 hrs
Mycobacteroides chelonae = assay: Antimycobacterial activity against Mycobacterium chelonae ATCC 6841 assessed as inhibition of bacterial growth after 48 hrs by resazurin microtitre assay; type: functional
[1] = system: Mycobacterium tuberculosis; assay: Antimycobacterial activity against Mycobacterium tuberculosis H37Rv ATCC 27294 assessed as inhibition of bacterial growth measured after 7 days by resazurin microtitre assay; type: functional; details: H37Rv ATCC 27294, 168 h, time 7 day
[2] = Selectivity index, ratio of CC50 for African green monkey Vero cells to MIC for Mycobacterium tuberculosis H37Rv ATCC 27294; type: toxicity; details: read-out: Selectivity Index
[3] = Cytotoxicity against African green monkey Vero cells assessed as reduction in cell viability measured after 72 hrs by MTT assay; type: toxicity, cell-based; details: chlorocebus sabaeus
Escherichia coli = assay: Antibacterial activity against Escherichia coli ATCC 25922 assessed as reduction in bacterial growth incubated for 16 to 18 hrs by microtiter plate assay; type: functional; details: time 16-18 hrs
[4] = system: Mycolicibacterium fortuitum; assay: Antimycobacterial activity against Mycobacterium fortuitum ATCC 6841 assessed as inhibition of bacterial growth after 48 hrs by resazurin microtitre assay; type: functional
Staphylococcus aureus = assay: Antibacterial activity against Staphylococcus aureus ATCC 29213 assessed as reduction in bacterial growth incubated for 16 to 18 hrs by microtiter plate assay; type: functional; details: time 16-18 hrs
Acinetobacter baumannii = assay: Antibacterial activity against Acinetobacter baumannii BAA 1605 assessed as reduction in bacterial growth incubated for 16 to 18 hrs by microtiter plate assay; type: functional; details: time 16-18 hrs
[5] = system: Mycobacterium tuberculosis; assay: Antimycobacterial activity against Mycobacterium tuberculosis H37Rv assessed as reduction in log10CFU at 1XMIC measured after 5 to 6 days by time kill assay; type: functional, organism-based; details: time 5-6 day
Klebsiella pneumoniae = assay: Antibacterial activity against Klebsiella pneumoniae BAA 1705 assessed as reduction in bacterial growth incubated for 16 to 18 hrs by microtiter plate assay; type: functional; details: time 16-18 hrs
[6] = system: Mycobacteroides abscessus; assay: Antimycobacterial activity against Mycobacterium abscessus ATCC 19977 assessed as inhibition of bacterial growth after 48 hrs by resazurin microtitre assay; type: functional
[7] = system: Mycobacterium tuberculosis; assay: Antimycobacterial activity against Mycobacterium tuberculosis H37Rv assessed as reduction in log10CFU at 10 X MIC measured after 5 to 6 days by time kill assay; type: functional, organism-based; details: time 5-6 day
[8] = Metabolic stability in human liver microsomes assessed as elimination rate constant at 1 uM preincubated for 5 mins in presence of NADPH incubated up to 60 mins by LC-MS/MS analysis; type: ADME, Microsome; details: time 65 min
[9] = system: Mycobacterium tuberculosis; assay: Antimycobacterial activity against Mycobacterium tuberculosis H37Rv at 10 X MIC measured after 5 to 7 days by time kill assay; type: functional; details: time 5-7 day
[10] = Aqueous solubility in phosphate buffer at pH 7.4 incubated for 4 hrs by HPLC analysis; type: physicochemical
[11] = Metabolic stability in human liver microsomes assessed as intrinsic clearance at 1 uM preincubated for 5 mins in presence of NADPH incubated up to 60 mins by LC-MS/MS analysis; type: ADME, Microsome; details: time 65 min, read-out: CLH
[12] = Metabolic stability in human liver microsomes assessed as half life at 1 uM preincubated for 5 mins in presence of NADPH incubated up to 60 mins by LC-MS/MS analysis; type: ADME, Microsome; details: time 65 min
[13] = system: Mycobacterium tuberculosis; assay: Antimycobacterial activity against Mycobacterium tuberculosis H37Rv at 1 X MIC measured after 5 to 7 days by time kill assay; type: functional; details: time 5-7 day
[14] = system: Mycobacterium tuberculosis; assay: Antimycobacterial activity against Mycobacterium tuberculosis H37Rv assessed as minimum bactericidal concentration by time kill assay; type: functional

SMILES	MIC (Pseudomonas aeruginosa)	MIC (Mycobacteroides chelonae)	MIC [1]	selectivity ratio [2]	CC50 at 72 h [3]	MIC (Escherichia coli)	MIC [4]	MIC (Staphylococcus aureus)	MIC (Acinetobacter baumannii)	Activity [5]	MIC (Klebsiella pneumoniae)	MIC [6]	Activity [7]	k el at 1 h, 1 µM [8]	Activity [9]	solubility at 4 h [10]	microsomal CLint at 1 µM [11]	half-life at 1 µM [12]	Activity [13]	MBC [14]
O=C(/C=C/c1ccc([N+](=O)[O-])o1)c1ccc(Nc2nc3cc([N+](=O)[O-])ccc3o2)cc1	> 64 µg/mL	> 64 µg/mL	0.03 µg/mL (≈ 0.0714 µM)	> 800	5 µg/mL (≈ 11.9 µM)	> 64 µg/mL	> 64 µg/mL	4 µg/mL (≈ 9.52 µM)	> 64 µg/mL	Active	> 64 µg/mL	> 64 µg/mL	Active							
O=C(/C=C/c1ccc([N+](=O)[O-])o1)c1ccc(Nc2nc3ccccc3o2)cc1	> 64 µg/mL	> 64 µg/mL	0.12 µg/mL (≈ 0.32 µM)	40	5 µg/mL (≈ 13.3 µM)	> 64 µg/mL	> 64 µg/mL	4 µg/mL (≈ 10.7 µM)	> 64 µg/mL	Active	> 64 µg/mL	> 64 µg/mL	Active							
O=C(/C=C/c1ccc([N+](=O)[O-])o1)c1ccc(Nc2nc3cc(Cl)ccc3o2)cc1	> 64 µg/mL	> 64 µg/mL	0.03 µg/mL (≈ 0.0732 µM)	160	5 µg/mL (≈ 12.2 µM)	> 64 µg/mL	> 64 µg/mL	4 µg/mL (≈ 9.76 µM)	> 64 µg/mL		> 64 µg/mL	> 64 µg/mL		0.000333 s⁻¹	100%	2.5 µg/mL (≈ 6.1 µM)	38.5 µL/min/mg	34.6 min	100%	0.03 µg/mL (≈ 0.0732 µM)
CO[C@H]1/C=C/O[C@@]2(C)Oc3c(C)c(O)c4c(O)c(c(/C=N/N5CCN(C)CC5)c(O)c4c3C2=O)NC(=O)/C(C)=C\C=C\[C@H](C)[C@H](O)[C@@H](C)[C@@H](O)[C@@H](C)[C@H](OC(C)=O)[C@@H]1C [RIFAMPIN]			0.03 µg/mL (≈ 0.0365 µM)							Active			Active							
COc1ccc(C(=O)/C=C/c2ccc([N+](=O)[O-])o2)cc1Nc1nc2ccccc2o1	> 64 µg/mL	> 64 µg/mL	0.25 µg/mL (≈ 0.617 µM)	< 10	5 µg/mL (≈ 12.3 µM)	> 64 µg/mL	> 64 µg/mL	8 µg/mL (≈ 19.7 µM)	> 64 µg/mL		> 64 µg/mL	> 64 µg/mL								
CC(C)(C)c1ccc2oc(Nc3ccc(C(=O)/C=C/c4ccc([N+](=O)[O-])o4)cc3)nc2c1	> 64 µg/mL	> 64 µg/mL	0.5 µg/mL (≈ 1.16 µM)	< 10	5 µg/mL (≈ 11.6 µM)	> 64 µg/mL	> 64 µg/mL	8 µg/mL (≈ 18.5 µM)	> 64 µg/mL		> 64 µg/mL	> 64 µg/mL								
Cc1ccc2oc(Nc3ccc(C(=O)/C=C/c4ccc([N+](=O)[O-])o4)cc3)nc2c1	> 64 µg/mL	> 64 µg/mL	0.06 µg/mL (≈ 0.154 µM)	80	5 µg/mL (≈ 12.8 µM)	> 64 µg/mL	> 64 µg/mL	4 µg/mL (≈ 10.3 µM)	> 64 µg/mL		> 64 µg/mL	> 64 µg/mL								
COc1cc(/C=C/C(=O)c2ccc(Nc3nc4ccccc4o3)cc2)cc(OC)c1OC	> 64 µg/mL	> 64 µg/mL	8 µg/mL (≈ 18.6 µM)			> 64 µg/mL	> 64 µg/mL	> 64 µg/mL	> 64 µg/mL		> 64 µg/mL	> 64 µg/mL								
O=C(/C=C/c1ccc([N+](=O)[O-])o1)c1cccc(Nc2nc3ccccc3o2)c1	> 64 µg/mL	> 64 µg/mL	0.06 µg/mL (≈ 0.16 µM)	80	5 µg/mL (≈ 13.3 µM)	> 64 µg/mL	> 64 µg/mL	16 µg/mL (≈ 42.6 µM)	> 64 µg/mL		> 64 µg/mL	> 64 µg/mL								
